The target of test [1] is T1, B1R receptor of the rat (Rattus norvegicus, UniProt P97583).
T1 construct: host or cells: CHO K1 cells (Chinese hamster ovary), stably transfected
T1 sequence (P97583 1-337): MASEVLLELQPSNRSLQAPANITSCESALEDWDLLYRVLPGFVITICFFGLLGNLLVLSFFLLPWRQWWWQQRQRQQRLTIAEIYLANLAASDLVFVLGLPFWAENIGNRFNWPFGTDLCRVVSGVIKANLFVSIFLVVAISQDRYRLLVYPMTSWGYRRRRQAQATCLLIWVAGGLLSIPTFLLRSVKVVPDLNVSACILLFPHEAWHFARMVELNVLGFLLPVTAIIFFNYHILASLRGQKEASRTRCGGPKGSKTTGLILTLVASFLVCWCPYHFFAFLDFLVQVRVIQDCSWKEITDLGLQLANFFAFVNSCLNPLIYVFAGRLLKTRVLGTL
Kind of test: Functional study on the bradykinin receptor 1 (B1R), FLIPR Ca2+ assay, rB1R cells. It counts as cell-based. Particulars: CHO-K1, test substance 10 μM, agonist Des-Arg9-bradykinin 100 nM, % inhibition compared with the maximum achievable inhibition, read-out: B1R Antagonism, rat [10 μM] % Inhibition. Summed up:
(§1)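 FLIPR Ca2+ read-out (Fluo-4, peak fluorescence) in stably transfected CHO K1 cells. Compounds at 10 μM, then 10 min later agonist challenge: human B1R with Lys-Des-Arg9-bradykinin 0.5 nM, rat B1R with Des-Arg9-bradykinin 100 nM; reported as % activation or % of maximal inhibition.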

Test [2] has as its target T2, human B1R receptor (Homo sapiens, UniProt P46663).
T2 construct: host or cells: CHO K1 cells (Chinese hamster ovary), stably transfected
T2 sequence (P46663 1-353): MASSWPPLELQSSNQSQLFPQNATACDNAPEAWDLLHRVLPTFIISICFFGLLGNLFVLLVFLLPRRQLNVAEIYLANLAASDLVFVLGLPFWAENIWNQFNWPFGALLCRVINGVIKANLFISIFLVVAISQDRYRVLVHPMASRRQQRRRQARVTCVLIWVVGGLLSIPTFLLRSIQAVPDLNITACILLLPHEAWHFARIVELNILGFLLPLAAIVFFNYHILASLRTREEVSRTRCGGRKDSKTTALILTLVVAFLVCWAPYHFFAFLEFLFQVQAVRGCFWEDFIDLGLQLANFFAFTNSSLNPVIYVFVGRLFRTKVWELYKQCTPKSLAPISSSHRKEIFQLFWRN
The test can be described thus: Functional study on the bradykinin receptor 1 (B1R), FLIPR Ca2+ assay, hB1R cells. It counts as cell-based. To be noted: agonist Lys-Des-Arg9-bradykinin 0.5 nM, % inhibition compared with the maximum achievable inhibition; for inhibition at 10 µM: CHO-K1, test substance 10 μM, read-out: B1R Antagonism, human [10 μM] % Inhibition. Summed up: as §1

Counter-ions that a name gives are not always drawn.

On to `COc1cc(C)c(S(=O)(=O)N2CCCCC2COCC(=O)N2CCC(N3CCn4ncnc4C3)CC2)c(C)c1` (centres unmarked) [Example 145, 1-(4-(5,6-dihydro-[1,2,4]triazolo[1,5-a]pyrazin-7(8H)-yl)piperidin-1-yl)-2-((1-(4-methoxy-2,6-dimethylphenylsulfonyl)piperidin-2-yl)methoxy)ethanone], for which the results for the inhibition at 10 µM in test [1] and in test [2] were 98.6% and 99.4%, respectively.
Regarding `COc1cc(C)c(S(=O)(=O)N2CCCCC2COCC(=O)NCc2ccc(N3CCOCC3)cc2)c(C)c1` (centres unmarked) [Example 21, 2-[1-(4-methoxy-2,6-dimethyl-phenylsulfonyl)-piperidin-2-ylmethoxy]-N-(4-morpholin-4-yl-benzyl)-acetamide], in test [1], the inhibition at 10 µM is 108%. Further, in test [2] (test substance 10 μM, hB1R CHO K1 cells), the “B1R Antagonism, human [10 μM] % Inhibition” value turned out to be 93.47%.
Consider `COc1cc(C)c(S(=O)(=O)N2CCCCC2COCC(=O)NCCCN2CCCCC2)c(C)c1` (centres unmarked) [Example 413, 2-((1-(4-methoxy-2,6-dimethylphenylsulfonyl)piperidin-2-yl)methoxy)-N-(3-(piperidin-1-yl)propyl)acetamide], for which the values for the inhibition at 10 µM in test [1] and in test [2] were 103% and 99.9%, respectively.
Take `O=C(COCC1CCCCN1S(=O)(=O)c1c(Cl)cccc1Cl)N1CCC(N2CCCC2)CC1` (centres unmarked) [Example 443, 2-((1-(2,6-dichlorophenylsulfonyl)piperidin-2-yl)methoxy)-1-(4-(pyrrolidin-1-yl)piperidin-1-yl)ethanone]: the inhibition at 10 µM came out at 99.3% in test [1] and 104% in test [2].
For `O=C(COCC1Cc2ccccc2CN1S(=O)(=O)c1ccc(Cl)cc1Cl)Nc1cccc(N2CCOCC2)c1` (centres unmarked) [Example 265, 2-((2-(2,4-dichlorophenylsulfonyl)-1,2,3,4-tetrahydroisoquinolin-3-yl)methoxy)-N-(3-morpholinophenyl)acetamide] the same measures were 51.3% and 100%.
Take `CN1CCC(N2CCN(C(=O)COCC3CCCCN3S(=O)(=O)c3ccc(Br)cc3)CC2)CC1` (centres unmarked) [Example 123, 2-((1-(4-bromophenylsulfonyl)piperidin-2-yl)methoxy)-1-(4-(1-methylpiperidin-4-yl)piperazin-1-yl)ethanone]: the inhibition at 10 µM in test [1] stood at 79.9%; in test [2] it was 43.9%.
`COc1cc(C)c(S(=O)(=O)N2CCCC2COCC(=O)N2CCN(Cc3ccc(Cl)cc3)CC2)c(C)c1` (centres unmarked) [Example 352, 1-(4-(4-chlorobenzyl)piperazin-1-yl)-2-((1-(4-methoxy-2,6-dimethylphenylsulfonyl)pyrrolidin-2-yl)methoxy)ethanone]: the inhibition at 10 µM in test [1] and in test [2] was 104% each time.
Regarding `COc1cc(C)c(S(=O)(=O)N2CCC[C@@H]2COCC(=O)N2CCN(C3CCN(C)CC3)CC2)c(C)c1C` [Example 140, (R)-2-((1-(4-methoxy-2,3,6-trimethylphenylsulfonyl)pyrrolidin-2-yl)methoxy)-1-(4-(1-methylpiperidin-4-yl)piperazin-1-yl)ethanone dihydrochloride], the inhibition at 10 µM in test [1] came out at 80.7%; in test [2], 100%.
Regarding `CN1CCC(N2CCN(C(=O)COCC3CCCCN3S(=O)(=O)c3ccc(Cl)c(C(F)(F)F)c3)CC2)CC1` (centres unmarked) [Example 115, 2-((1-(4-chloro-3-(trifluoromethyl)phenylsulfonyl)piperidin-2-yl)methoxy)-1-(4-(1-methylpiperidin-4-yl)piperazin-1-yl)ethanone], the inhibition at 10 µM amounted to 58.1% in test [1] and 102% in test [2].
Consider `COc1cc(C)c(S(=O)(=O)N2CCCCC2COCC(=O)NCCN(C)C)c(C)c1` (centres unmarked) [Example 259, N-(2-(dimethylamino)ethyl)-2-((1-(4-methoxy-2,6-dimethylphenylsulfonyl)piperidin-2-yl)methoxy)acetamide], for which the inhibition at 10 µM in test [1] turned out to be 99.3%; in test [2] it was 66.1%.
Consider `COc1cc(C)c(S(=O)(=O)N2CCCCC2COCC(=O)N2CCN(c3nc(-c4ccccc4)cs3)CC2)c(C)c1` (centres unmarked) [Example 402, 2-((1-(4-methoxy-2,6-dimethylphenylsulfonyl)piperidin-2-yl)methoxy)-1-(4-(4-phenylthiazol-2-yl)piperazin-1-yl)ethanone], for which the inhibition at 10 µM in test [1] worked out at 101%; in test [2], 47.1%.
The corresponding values for `COc1cc(C)c(S(=O)(=O)N2CCCCC2COCC(=O)N2CCCC2c2ccccn2)c(C)c1` (centres unmarked) [Example 247, 2-((1-(4-methoxy-2,6-dimethylphenylsulfonyl)piperidin-2-yl)methoxy)-1-(2-(pyridin-2-yl)pyrrolidin-1-yl)ethanone] are 96.8% and 70.8%.
Consider `COc1cc(C)c(S(=O)(=O)N2CCCC[C@@H]2COCC(=O)N2CCN(C3CCN(C)CC3)CC2)c(C)c1` [Example 177, (R)-2-((1-(4-methoxy-2,6-dimethylphenylsulfonyl)piperidin-2-yl)methoxy)-1-(4-(1-methylpiperidin-4-yl)piperazin-1-yl)ethanone dihydrochloride], for which the results for the inhibition at 10 µM in test [1] and in test [2] were 100% and 104%, respectively.
The corresponding values for `COc1cc(C)c(S(=O)(=O)N2CCCCC2COCC(=O)N2CCC(N3CCc4cc(F)ccc4C3)CC2)c(C)c1` (centres unmarked) [Example 200, 1-(4-(6-fluoro-3,4-dihydroisoquinolin-2(1H)-yl)piperidin-1-yl)-2-((1-(4-methoxy-2,6-dimethylphenylsulfonyl)piperidin-2-yl)methoxy)ethanone] are 98.7% and 102%.
`Cc1cc(C)c(S(=O)(=O)N2CCCCC2COCC(=O)N2CCCN(Cc3ccccc3)CC2)c(C)c1` (centres unmarked) [Example 31, 1-(4-benzyl-[1,4]diazepan-1-yl)-2-[1-(2,4,6-trimethyl-phenylsulfonyl)-piperidin-2-ylmethoxy]-ethanone]: the inhibition at 10 µM came out at 94.7% in test [1] and 83.8% in test [2].
For `COc1cc(C)c(S(=O)(=O)N2CCCCC2COCC(=O)N2CCN(Cc3cccc(C#N)c3)CC2)c(C)c1` (centres unmarked) [Example 92, 3-((4-(2-((1-(4-methoxy-2,6-dimethylphenylsulfonyl)piperidin-2-yl)methoxy)acetyl)-piperazin-1-yl)methyl)benzonitrile hydrochloride] the same measures were 101% and 103%.
For `O=C(COCC1CCCCN1S(=O)(=O)c1c(Cl)cccc1Cl)N1CCN(c2ccc(F)cc2)CC1` (centres unmarked) [Example 318, 2-((1-(2,6-dichlorophenylsulfonyl)piperidin-2-yl)methoxy)-1-(4-(4-fluorophenyl)piperazin-1-yl)ethanone] the same measures were 102% and 102%.
Take `COc1cc(C)c(S(=O)(=O)N2CCCCC2COCC(=O)Nc2cccc(N3CCCCC3)c2)c(C)c1` (centres unmarked) [Example 429, 2-((1-(4-methoxy-2,6-dimethylphenylsulfonyl)piperidin-2-yl)methoxy)-N-(3-(piperidin-1-yl)phenyl)acetamide]: the inhibition at 10 µM in test [1] came to 99.5%; in test [2] it was 14.3%.
For `O=C(COCC1CCCN1S(=O)(=O)c1c(Cl)cccc1Cl)N1CCC(N2CCCCC2)CC1` (centres unmarked) [Example 337, 1-(1,4′-bipiperidin-1′-yl)-2-((1-(2,6-dichlorophenylsulfonyl)pyrrolidin-2-yl)methoxy)ethanone] the same measures were 104% and 104%.
`O=C(COCC1CCCCN1S(=O)(=O)c1c(Cl)cccc1Cl)NCc1ccc(CN2CCCC2)cc1` (centres unmarked) [Example 313, 2-((1-(2,6-dichlorophenylsulfonyl)piperidin-2-yl)methoxy)-N-(4-(pyrrolidin-1-ylmethyl)benzyl)acetamide]: the inhibition at 10 µM in test [1] and in test [2] was 103% each time.
In the case of `Cc1cc(C)nc(CC2CCCCN2C(=O)COCC2Cc3ccccc3CN2S(=O)(=O)c2c(C)cc(C)cc2C)c1` (centres unmarked) [Example 223, 1-(2-((4,6-dimethylpyridin-2-yl)methyl)piperidin-1-yl)-2-((2-(mesitylsulfonyl)-1,2,3,4-tetrahydroisoquinolin-3-yl)methoxy)ethanone], the inhibition at 10 µM was found to be 86.4% in test [1] and 26.2% in test [2].
For `O=C(COCC1Cc2ccccc2CN1S(=O)(=O)c1ccc(Cl)cc1Cl)N1CCC(N2CCOCC2)CC1` (centres unmarked) [Example 65, 2-((2-(2,4-dichlorophenylsulfonyl)-1,2,3,4-tetrahydroisoquinolin-3-yl)methoxy)-1-(4-morpholinopiperidin-1-yl)ethanone] the same measures were 93.2% and 55.4%.
